According to PMC5080452 (Bioorganic & Medicinal Chemistry, 2016):

What was measured:
[1] = target: T1, Electrophorus electricus (Ee) AChE (Electrophorus electricus, UniProt O42275); assay: Acetylcholinesterase inhibitory activity (Ellman method); type: biochemical; details: mean ± SEM, read-out: EeAChE IC50
T1 construct: purchased Sigma-Aldrich
Experimental: The inhibitory activity against Electrophorus electricus (Ee) AChE (Sigma–Aldrich) was evaluated spectrophotometrically by the method of Ellman et al.[56] […] Inhibition curves were performed in duplicates using at least 10 increasing concentrations of inhibitors and preincubated for 20 min at 37 °C before adding the substrate. One duplicate sample without inhibitor was always present to yield 100% of AChE activity.
Results are expressed as mean ± SEM of at least 4 experiments performed in duplicate.

in vitro = details: pig, PAMPA
[2] = commercial drugs for PAMPA-BBB assay validation; cited from earlier work

T1 sequence (O42275 24-633): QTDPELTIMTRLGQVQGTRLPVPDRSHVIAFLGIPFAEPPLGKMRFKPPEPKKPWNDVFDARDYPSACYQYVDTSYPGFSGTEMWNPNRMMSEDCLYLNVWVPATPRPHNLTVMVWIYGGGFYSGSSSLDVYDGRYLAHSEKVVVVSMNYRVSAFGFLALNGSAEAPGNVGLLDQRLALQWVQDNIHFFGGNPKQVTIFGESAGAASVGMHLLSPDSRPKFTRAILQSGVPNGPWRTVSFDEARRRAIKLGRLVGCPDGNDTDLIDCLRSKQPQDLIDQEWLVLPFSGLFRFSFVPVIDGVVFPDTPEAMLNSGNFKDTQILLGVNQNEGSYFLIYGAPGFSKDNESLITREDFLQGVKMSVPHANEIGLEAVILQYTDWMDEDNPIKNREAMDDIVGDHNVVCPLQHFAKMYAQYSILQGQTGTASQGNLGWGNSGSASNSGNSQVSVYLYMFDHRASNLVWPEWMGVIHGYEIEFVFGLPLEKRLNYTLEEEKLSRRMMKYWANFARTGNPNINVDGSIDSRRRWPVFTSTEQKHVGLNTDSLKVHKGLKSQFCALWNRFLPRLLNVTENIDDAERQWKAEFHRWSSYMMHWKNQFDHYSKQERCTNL

Row | Structure (SMILES) | IC50 [1] [nM] | Papp (in vitro) [×10⁻⁶ cm/s] | Pe, literature value [2]
1 | CC1=CC2Cc3nc4cc(Cl)ccc4c(NCCCCCCCCN)c3C(C1)C2 (centres unmarked) [5d] | 17.3 ± 1.2 | 9.8 ± 0.6 | 
2 | CC1=CC2Cc3nc4cc(Cl)ccc4c(NCCCCCCCCCC#N)c3C(C1)C2 (centres unmarked) [4f] | 9.67 ± 0.89 | 11.3 ± 1.2 | 
3 | CC1=CC2Cc3nc4cc(Cl)ccc4c(NCCCCCCCCCNC(=N)N)c3C(C1)C2 (centres unmarked) [6e, 1-{9-[(3-Chloro-6,7,10,11-tetrahydro-9-methyl-7,11-methanocycloocta[b]quinolin-12-yl)amino]nonyl}guanidine] | 10.6 ± 0.8 | 5.4 ± 0.3 | 
4 | N#CCCCCCCCNc1c2c(nc3cc(Cl)ccc13)CCCC2 [12d, 8-[(6-Chloro-1,2,3,4-tetrahydroacridin-9-yl)amino]octanenitrile] | 46 ± 6 | 14.7 ± 0.8 | 
5 | CC1=CC2Cc3nc4cc(Cl)ccc4c(NCCCN4CCCCC4)c3C(C1)C2 (racemic) [compound 7, 3-Chloro-6,7,10,11-tetrahydro-9-methyl-12-[(3-piperidinopropyl)amino]-7,11-methanocycloocta[b]quinoline] | 48.4 ± 2.7 | 5.9 ± 0.4 | 
6 | CC1=CC2Cc3nc4cc(Cl)ccc4c(N)c3C(C1)C2 (centres unmarked) [compound 1, huprine Y, reference compound] | 0.3 ± 0.01 |  | 
7 | CC1=CC2Cc3nc4cc(Cl)ccc4c(NCCCCCCNC(=N)N)c3C(C1)C2 (centres unmarked) [6b, 1-{6-[(3-Chloro-6,7,10,11-tetrahydro-9-methyl-7,11-methanocycloocta[b]quinolin-12-yl)amino]hexyl}guanidine] | 11.8 ± 1.3 | 2.9 ± 0.4 | 
8 | N#CCCCCCCNc1c2c(nc3cc(Cl)ccc13)CCCC2 [12c, 7-[(6-Chloro-1,2,3,4-tetrahydroacridin-9-yl)amino]heptanenitrile] |  | 16.7 ± 0.9 | 
9 | NCCCCCCCCCNc1c2c(nc3ccccc13)CCCC2 [13e] | 15.6 ± 1.5 | 6.9 ± 0.5 | 
10 | CC1=CC2Cc3nc4cc(Cl)ccc4c(NCCCCCCCN)c3C(C1)C2 (centres unmarked) [5c] | 36 ± 3.5 | 7.6 ± 0.7 | 
11 | N=C(N)NCCCCCCCNc1c2c(nc3ccccc13)CCCC2 [15c, 1-{7-[(1,2,3,4-Tetrahydroacridin-9-yl)amino]heptyl}guanidine] | 23.9 ± 2.6 | 5.9 ± 0.3 | 
12 | N#CCCCCCCNc1c2c(nc3ccccc13)CCCC2 [11c, 7-[(1,2,3,4-Tetrahydroacridin-9-yl)amino]heptanenitrile] | 53.9 ± 3 | 11.2 ± 0.2 | 
13 | N#CCCCCCCCCNc1c2c(nc3ccccc13)CCCC2 [11e, 9-[(1,2,3,4-Tetrahydroacridin-9-yl)amino]nonanenitrile] | 44.9 ± 1.6 | 7.6 ± 0.35 | 
14 | CC1=CC2Cc3nc4cc(Cl)ccc4c(NCCCCC#N)c3C(C1)C2 (centres unmarked) [4a] | 26.9 ± 1.1 |  | 
15 | CN(C)CCCN1c2ccccc2Sc2ccccc21 [Promazine] |  |  | 8.8 10^−6 cm s^−1
16 | CC1=CC2Cc3nc4cc(Cl)ccc4c(NCCCCCCCCCN)c3C(C1)C2 (centres unmarked) [5e] | 16.4 ± 1.8 | 7.1 ± 0.7 | 
17 | CC1=CC2Cc3nc4cc(Cl)ccc4c(NCCCCCCCCCCCN)c3C(C1)C2 (centres unmarked) [5g] | 35.3 ± 3.9 | 4 ± 0.2 | 
18 | CC1=CC2Cc3nc4cc(Cl)ccc4c(NCCCN4CCOCC4)c3C(C1)C2 (racemic) [compound 8, (±)-3-Chloro-6,7,10,11-tetrahydro-9-methyl-12-[(3-morpholinopropyl)amino]-7,11-methanocycloocta[b]quinoline] | 13.3 ± 0.8 | 15 ± 1 | 
19 | N=C(N)NCCCCCCCCCNc1c2c(nc3cc(Cl)ccc13)CCCC2 [16e, 1-{9-[(6-Chloro-1,2,3,4-tetrahydroacridin-9-yl)amino]nonyl}guanidine] | 16.4 ± 1.5 | 6.7 ± 0.4 | 
20 | NCCCCCCCNc1c2c(nc3ccccc13)CCCC2 [13c] | 23.9 ± 2.6 | 7.4 ± 0.1 | 
21 | CC1=C[C@@H]2Cc3nc4cc(Cl)ccc4c(NCc4ccc(CN)cc4)c3[C@H](C1)C2 [5h] |  | 11.7 ± 1.1 | 
22 | CC1=CC2Cc3nc4cc(Cl)ccc4c(NCc4ccc(C#N)cc4)c3C(C1)C2 (centres unmarked) [4h] | 158 ± 21 | 19.3 ± 1.2 | 
23 | NCCCCCCCCCNc1c2c(nc3cc(Cl)ccc13)CCCC2 [14e] | 14.5 ± 1.6 | 5.8 ± 0.3 | 
24 | N=C(N)NCCCCCCCCCNc1c2c(nc3ccccc13)CCCC2 [15e, 1-{9-[(1,2,3,4-Tetrahydroacridin-9-yl)amino]nonyl}guanidine] | 30.5 ± 1.9 | 6.5 ± 0.3 | 
25 | CC1=CC2Cc3nc4cc(Cl)ccc4c(NCCCCCC#N)c3C(C1)C2 (centres unmarked) [4b] | 31.1 ± 3.1 | 12.4 ± 0.6 | 
26 | N#CCCCCCCCCNc1c2c(nc3cc(Cl)ccc13)CCCC2 [12e, 9-[(6-Chloro-1,2,3,4-tetrahydroacridin-9-yl)amino]nonanenitrile] | 24.3 ± 4.5 | 5.4 ± 0.4 | 
